Results published in PubChem BioAssay AID179 (DTP/NCI, 2004).
pEC50, pIC50: −log10 of the molar value. Activity calls are given as the source filed them.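 Rule for the calls: active = compounds giving half or more protection of infected cells from virus-caused growth loss, again on retest; inactive = the rest.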 Where a SMILES comes first, the peptide text is derived from it.

System: CEM cells HIV-1 protection, formazan growth assay
Assay: NCI AIDS Antiviral Assay
Conditions: for pIC50: measured here: growth of uninfected CEM cells
Method in brief: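 CEM (human) cells, HIV-1 infected vs uninfected, 5-point dosing, formazan growth read-out. Retest threshold 50% protection.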

| SMILES | pEC50 | pIC50 | outcome |
| --- | --- | --- | --- |
| CCC(C)C(NC(=O)CNC(=O)C(Cc1cnc[nH]1)NC(=O)C(NC(=O)C(CS)NC(=O)C(CCC(N)=O)NC(=O)C(NC(=O)C(NC(=O)C(CO)NC(=O)C(NC(=O)C(CC(N)=O)NC(=O)C(NC(=O)C(CO)NC(=O)C1CCCN1C(=O)CNC(=O)C(NC(=O)CN)C(C)O)C(C)O)C(C)C)C(C)O)C(C)C)C(C)O)C(=O)NC(CCCN=C(N)N)C(N)=O (stereo not given) (H-GTGPSTNVSTVQCTHGIR-NH2; configuration not given here) | < 4.30 | < 4.30 |  |
| COC(=O)C12C3C4C1C1C2C3C41C(=O)OC(C)(C)C (stereo not given) | < 3.59 | < 3.59 |  |
| COc1cc(/C=N/NC2=NCCN2)ccc1O | < 3.70 | < 3.70 |  |
| CC1(C)OP(=O)(c2ccccc2)C=C1Sc1ccc([N+](=O)[O-])cc1[N+](=O)[O-] (stereo not given) | 4.35 | 3.98 |  |
| CC12C(=O)N(C3CCC(=O)NC3=O)C(=O)C1C1CCC2C1 (stereo not given) | < 3.70 | < 3.70 |  |
| Cc1ccc(-c2c(C#N)c(-c3ccc(Cl)cc3)c(C#N)c(=O)n2NS(=O)(=O)c2ccc(C)cc2)cc1 | < 3.70 | 4.68 |  |
| Cc1c2ccccc2nc(CS(=O)(=O)CCO)[n+]1[O-] | < 3.70 | < 3.70 |  |
| COC(=O)CC(=O)OSc1ccccc1 | < 3.60 | 4.74 |  |
| O=C1c2ccccc2C(=O)N1CCc1ncc[nH]1 | < 3.70 | < 3.70 |  |
| O=c1oc2c(ccc3occc32)c(N2CCCCC2)c1-c1ccccc1 |  |  | inactive |
| CC1CN=C(Nc2ccc(S(N)(=O)=O)cc2)S1 (stereo not given) | < 3.70 | 3.75 |  |
| CSc1nc(-c2ccccc2)nc(C(C#N)C#N)n1 |  |  | inactive |
| c1ccc2c3c([nH]c2c1)CCc1cncnc1-3 | < 3.70 | 4.92 |  |
| CC1(c2ccc3ccccc3c2)OC(=O)c2cccc(F)c21 (stereo not given) |  |  | inactive |
| O=c1c2ccccc2c2c3c1cccc3c1cccc3c(=O)c4ccccc4c2c31 | < 5.15 | < 5.15 |  |
| NC1CC=C(COC(=O)C(O)(c2ccccc2)C2CC2)CC1 (stereo not given) | < 3.70 | < 3.70 |  |
| CC(=N\N)/C(C)=N/N=C(C)/C(C)=N/N=C(C)/C(C)=N/N | < 3.70 | 3.75 |  |
| CC(C)C1=CC(=O)C(C)(C2=NC(C)(C)CO2)c2ccccc21 (stereo not given) | < 3.36 | < 3.36 |  |
| CN1C(=O)CNC(=O)c2ncn(C3OC(CO)C(O)C3O)c21 (stereo not given) | < 3.64 | < 3.64 |  |
| O=c1c2ccccc2nc(-c2ccccc2Cl)n1NC1OC(CO)C(O)C(O)C1O (stereo not given) |  |  | inactive |
| C=Cc1cc[n+](CCCCCCCCCCCC)cc1 | < 3.76 | 3.99 |  |
| N#Cc1nn(C(N)=O)c(N)c1C#N | < 3.70 | < 3.70 |  |

| SMILES | pEC50 | pIC50 | outcome |
| --- | --- | --- | --- |
| O=C(O)c1ccc(-c2c3ccc(=O)cc-3oc3cc(O)ccc23)cc1 | < 3.70 | 3.97 |  |
| O=S(=O)(c1ccc(NC2=NC(c3ccc(O)cc3)(c3ccccc3O)c3ccccc32)cc1)c1ccc(NC2=NC(c3ccc(O)cc3)(c3ccccc3O)c3ccccc32)cc1 (stereo not given) | < 3.70 | 5.46 |  |
| O=c1c2ccccc2oc2ccccc12 (tested in a mixture with another compound) | < 4.96 | 6.11 |  |
| O=C(O)CCCCCCCCCCCOc1ccccc1 | < 3.70 | 4.20 |  |
| CCOC(=O)C1(CC)OC12CCCCC2 (stereo not given) | < 3.70 | < 3.70 |  |
| Cn1c(=O)cc(NCCc2ccccc2)[nH]c1=O | < 3.70 | 4.76 |  |
| Cc1csc2nc(-c3ccco3)nn12 | < 3.70 | < 3.70 |  |
| O=S1(=O)OCCCCO1 | < 2.79 | < 2.79 |  |
| CCCc1cc(=O)[nH]c(SCC(=O)O)n1 | < 3.70 | < 3.70 |  |
| CC(=O)Nc1ccc(C2[C@H]3C(=O)N(c4ccc(Cc5ccc(N6C(=O)[C@@H]7ON(c8ccccc8)C(c8ccc(NC(C)=O)cc8)[C@@H]7C6=O)cc5)cc4)C(=O)[C@H]3ON2c2ccccc2)cc1 (stereo not given in full) | < 5.22 | < 5.22 |  |
| Cc1ccc(-n2c(=S)n(-c3ccccc3C)c3nc4ccccc4nc2/c3=N\Nc2ccccc2)cc1 | < 3.70 | 3.91 |  |
| CC1=C(C(=O)Nc2ccccc2C)C(c2ccc([N+](=O)[O-])cc2)C(C(=O)Nc2ccccc2C)=C(C)N1 | < 4.98 | < 4.98 |  |
| OC(c1ccco1)C(F)(F)c1nc2ccccc2o1 (stereo not given) | < 3.70 | < 3.70 |  |
| Cc1ccc2[nH]c(N(C)C)nc2c2nc(Cl)nc1-2 | < 3.70 | 3.93 |  |
| Cc1[nH]c2ccccc2c1C1=CC(=O)N(c2ccccc2)C1=O | < 3.70 | 5.06 |  |
| Cc1cn(C2CC(COCc3ccccc3)N(CCO)O2)c(=O)[nH]c1=O (stereo not given) | < 3.70 | < 3.70 |  |
| C=CC(C)(C)C1(CC(OC)OC)C(=O)N(C)c2ccccc21 (stereo not given) | < 3.70 | < 3.70 |  |
| CNS(=O)(=O)NNS(=O)(=O)c1ccc(Br)cc1 | < 4.12 | < 4.12 |  |
| CCO[C@H]1OC(=O)[C@@H]2C(c3ccc([N+](=O)[O-])cc3)=NO[C@H]12 | < 4.33 | < 4.33 |  |
| O=S(=O)(NCCSSCCNS(=O)(=O)c1cccc2cccnc12)c1cccc2cccnc12 | < 3.70 | 4.97 |  |
| S=C(Nc1cccc(-c2ccccc2)c1)Nc1ccc(Br)cn1 | < 3.70 | 5.93 |  |
| CCOC(=O)C(CC(CO)(C(C)=O)C(=O)OCC)C(C)=O (stereo not given) | < 3.70 | 4.65 |  |

| SMILES | pEC50 | pIC50 | outcome |
| --- | --- | --- | --- |
| COc1ccc(/C=C2/SC(c3ccccc3)N(NC(=O)CCCCCCCCC(=O)NN3C(=O)/C(=C\c4ccc(OC)c(OC)c4)SC3c3ccccc3)C2=O)cc1OC (stereo not given) | < 3.70 | 4.04 |  |
| COc1cc2c3cc1Oc1c(OC)c(OC)cc4c1[C@@H](Cc1ccc(O)c(c1)Oc1ccc(cc1)C[C@@H]3N(C)CC2)N(C)CC4 |  |  | inactive |
| Cn1cc/c(=N\N=c2/ccn(C)c3ccccc23)c2ccccc21 | < 3.94 | 5.30 |  |
| Cc1nc(-n2nc(-c3ccccc3)cc2-c2ccccc2)sc1C(=O)CC(=O)C(=O)Nc1ccc(O)cc1 | < 3.46 | < 3.46 |  |
| CCC12CCC[C@@]13C=C[C@H](O3)C(C)(C)C2=O (stereo not given in full) |  |  | inactive |
| N/C(=N\N=C\c1c[nH]c2cc(C(F)(F)F)ccc2c1=O)NO | < 3.70 | 4.05 |  |
| COC(=O)c1cc2ccccc2c(=O)s1 | < 4.79 | < 4.79 |  |
| CC1NC(=O)CC(c2ccccc2)N(N=O)C1c1ccccc1 (stereo not given) |  |  | inactive |
| COc1cc(C(=O)Oc2c(C#N)sc3c2c(=O)n(-c2ccccc2)c(=S)n3-c2ccccc2)cc(OC)c1OC | < 3.70 | 6.21 |  |
| Cn1c(-c2cccs2)cc(-c2ccccc2)c1-c1cccs1 | < 3.70 | < 3.70 |  |
| CN=C(N)c1ncn(C2OC(CO)C(O)C2O)n1 (stereo not given) |  |  | inactive |
| C[C@H](CCc1nc2ccccc2n1CCN(C)C)[C@H]1CC[C@H]2[C@@H]3CC[C@@H]4C[C@H](O)CC[C@]4(C)[C@H]3CC[C@]12C | 5.81 | 5.32 |  |
| CCCCCCCCCCCCCC(=O)CC(=O)c1c(O)cccc1O |  |  | inactive |
| O=C1C=Cc2c(-c3ccccc3)oc3cccc1c23 |  |  | inactive |
| CCN(CC)CCN1CC(=O)N2CCCCN2C(=O)C1 | < 3.70 | < 3.70 |  |
| Cc1ccc2nc(NC(=O)C(=O)C(C(=O)c3ccc4ccccc4c3)C3OC(=O)c4ccccc43)sc2c1 (stereo not given) | < 4.30 | 4.59 |  |
| CC(C)(C)c1ccc(O)c(C(O)c2ccccn2)c1 (stereo not given) | < 3.70 | 4.09 |  |
| Oc1ccccc1-c1n[nH]c(-c2ccccc2O)n1 | < 3.70 | 5.86 |  |
| CCOC(=O)c1sc2c(C(=O)OCC)c3ccccn3c2c1C |  |  | inactive |
| c1cc2c(cnc3cscc32)s1 |  |  | inactive |
| N/N=C1/C(=N/O)CCc2nonc21 | < 3.70 | < 3.70 |  |
| Cc1ccc(SSCCCS(=O)O)cc1 |  |  | inactive |

| SMILES | pEC50 | pIC50 | outcome |
| --- | --- | --- | --- |
| CCN(CC)C(=S)SS(=O)(=O)c1ccc([N+](=O)[O-])cc1 | < 3.70 | 4.72 |  |
| CC1(C)O[C@@H]2COC(=O)[C@@H]2O1 | < 3.70 | < 3.70 |  |
| CCn1c2c(c3ccccc3c1=O)C(=O)c1ccccc1-2 | < 4.58 | < 4.58 |  |
| CC(C)(C)[Si](C)(C)OCC1OC(n2cc(I)c(=O)[nH]c2=O)C(O[Si](C)(C)C(C)(C)C)C1O[Si](C)(C)C(C)(C)C (stereo not given) | < 3.70 | 4.76 |  |
| CC(CCc1ccccc1)NCC(O)n1c(/N=N/N(C)C)nc2c1c(=O)n(C)c(=O)n2C (stereo not given) | < 3.70 | < 3.70 |  |
| CSc1c2c(C)n[nH]c2nn1-c1ccccc1 | < 3.70 | 4.91 |  |
| C1CSCCSCCCSC2CCCCC2SC1 (stereo not given) | < 4.65 | < 4.65 |  |
| Nc1ncnc2c1ncn2C1C=CC(CO)CC1 (stereo not given) | < 3.70 | < 3.70 |  |
| CC1(C)/C=C/CC2(C)Oc3ccccc3C[C@@H]2CCC2(C)Oc3ccccc3C[C@@H]2C1 (stereo not given in full) | < 4.92 | < 4.92 |  |
| CN(N)c1nc(N)c(C#N)c(C#N)c1C#N | < 4.00 | < 4.00 |  |
| COc1cc(OC)c(C2c3cc4c(cc3OC(N3CCCC3)C2C)OCO4)c(OC)c1 (stereo not given) | < 3.70 | 5.36 |  |
| OC1=CN=C(c2ccccc2)Oc2ccccc21 | < 4.80 | < 4.80 |  |
| CCC12CCCN(Cc3ccccc3)C1c1c(n(C)c3ccccc13)[C@H](C(=O)OC)C2 (stereo not given in full) | < 4.90 | < 4.90 |  |
| CC(C)c1c(O[Si](C(C)C)(C(C)C)C(C)C)cc2c(c1O)CC[C@H]1C(C)(C)CCC[C@]21C | < 3.70 | 4.57 |  |
| CCCC(=N\N=C(N)N)/C(CCC)=N/N=C(N)N | < 3.73 | < 3.73 |  |
| O=C(NNc1ccccc1)C(O)C(O)C(O)C(O)C(O)CO (stereo not given) |  |  | inactive |
| O=c1oc2ccccc2n1P(=O)(N1CCOCC1)N1CCOCC1 | < 3.60 | < 3.60 |  |
| O=C(CNc1ccc(Cl)cc1Cl)Nn1c(-c2ccccc2)nc2ccccc2c1=O | < 3.70 | 4.98 |  |
| N#Cc1c2n(c(=S)n(-c3ccccc3)c1=N)CCCCCCC2 | < 3.70 | 4.97 |  |
| C=CCNc1nc2c(s1)c(C)c(O)c1ccccc12 | < 3.70 | 5.45 |  |
| CCCCCCSCC/C(C)=N\OC | < 3.70 | < 3.70 |  |
